The subject of experiment [1] is transient focal cerebral ischemia induced by Middle Cerebral Artery Occlusion (MCAO). Description: Animal cerebral infarct assay: two-hour Middle Cerebral Artery Occlusion (MCAO) with reperfusion. As to conditions: for total ischemic damage relative to control animals: I.V. at the time of MCAO; for total infarct volume relative to control animals: administered (I.V.) at the time of MCAO; for reduction of infarct volume: administered at reperfusion; for tissue edema relative to controls / total ischemic damage relative to controls / total infarct volume relative to controls: administered at the time of reperfusion; for edema relative to control animals: at the time of MCAO. It is filed as in vivo, rat. From the text: This assay is used to assess the efficacy of the test agents in protecting the brain against necrosis following cerebral ischemia induced in rats. Middle Cerebral Artery Occlusion (MCAO) is a widely used technique to induce transient focal cerebral ischemia in animal models. […] Furthermore, this model accurately represents the involvement of middle cerebral artery (MCA), the most affected vessel in human stroke, and also allows reperfusion as it happens in humans. MCAO by a two-hour occlusion is used to produce the maximum size of cortical infarction without increased mortality at twenty-four hours. Male Wistar rats (Hadan, Ind.) weighing 300-350 g were allowed free access to water and commercial rodent diet under standard laboratory conditions. The room temperature was maintained at 20-23° C. and room illumination was on a 12/12-hour light/dark cycle. The rats were acclimatized to the laboratory environment 5 to 7 days prior to the study. Before surgery, the animals were fasted overnight, but had free access to water. The rats were anesthetized with 3.0% isoflurane (Aerrane, Front Dodge, Iowa) in […] and the animal's neck was shaved and sterilized before the operation. The animals were subjected to two hours MCAO using a modified intraluminal filament technique. A midline incision on the ventral part of the neck was made to expose external and internal carotid arteries. The right external and common carotid arteries were ligated by a suture (silk 5/0, Carlisle Laboratories, Farmers Branch, Tex.) and the right internal artery was temporarily ligated by a microvascular clip (Fine Science Tool Inc., Foster City, Calif.). A small incision was made in the common carotid artery and a nylon filament, its tip rounded by heating, prepared from a fishing line (Stren Fishing Lines, Wilmington, Del.) was inserted from the right common carotid artery. The filament was advanced into the internal carotid artery 18-20 mm from the point of bifurcation of internal and external arteries and a suture was tightly ligated around the filament. Two hours post occlusion, the animals were re-anesthetized to allow reperfusion for the remaining of the experiment by removal of the filament. The anesthetized animal were placed on a stereotaxic apparatus (Harvard Apparatus, S. Natick, Mass.). Anesthesia was maintained by inhalation of 3.0% isoflurane in […] throughout the entire procedure. The scalp was shaved and sterilized prior to surgery. A midline sagittal incision about 3 cm long was made slightly behind the eyes to expose the skull. The skull was scraped with a rounded end spatula to remove periosteal connective tissue. A bur hole was placed 1.5 mm lateral, 1 mm posterior to the left of the bregma to mark the left lateral ventricle. A brain infusion cannula (ALZET CO. Palo Alto, Calif.) was inserted 4 mm deep into the hole. The desired depth was adjusted by attaching spacers to the cannula. The cannula was attached to a 4-cm silastic catheter (Helix Medical Inc.) fixed in place with dental cement (Ketac-cement, Norristown, Pa.). The catheter was either attached to a primed osmotic pump placed subcutaneously between the shoulder blades for permanent infusion or to a syringe for a short infusion. Anesthesia was maintained by inhalation of 3.0% isoflurane in […] throughout the entire procedure. The exterior site of the right femoral vein was shaved and sterilized prior to surgery. A 3 cm incision was made in the right groin region and the femoral vein was isolated. A small incision was made on the femoral vein temporarily ligated with a microvascular clip to introduce and advance a polyethylene (PE-50) catheter (Becton. Dickinson and Co., Sparks, Md.). The catheter was secured in place with suture (silk 5/0, Carlisle Laboratories, Farmers Branch, Tex.). The other end of the catheter was attached to a syringe filled with the heparinized saline for the bolus injection. […]

A short description of experiment [2]: Experiments performed in support of the invention: synergy of hesperetin with tocopherols (test not specified).
The test system of experiment [3] is congestive heart failure (CHF). As to the kind of experiment: Model of congestive heart failure: permanent ligation of the left coronary artery (Example 6). It is filed as in vivo, rat. The conditions noted are these: after permanent ligation of the left coronary artery.
Where [4] appears, read: listed as gamma-tocopherol enriched composition.
[5] abbreviates: listed as gamma-tocopherol enriched tocopherol composition.
Setting [6] is: oral gavage pre-MCAO (3 hours), 10 mg/kg.
Setting [7] is: listed as gamma-tocopherol metabolite enriched composition.
Setting [8] is: oral gavage pre-MCAO, dose not given.

Entries after “also recorded” stand apart in the source; their conditions may differ.

For `Cc1c(O)cc2c(c1C)OC(C)(CCCC(C)CCCC(C)CCCC(C)C)CC2` (stereo not shown) [gamma-tocopherol, 3,4-dihydro-2,7,8-trimethyl-2-(4,8,12-trimethyltridecyl)-2H-1-benzyopyran-6-ol], the “reduction of infarct size” value in experiment [1] (6 mg/kg at MCAO (IV)) stood at 82%. In experiment [1], the “total ischemic damage relative to control animals” value is “significantly reduced”, the “tissue edema relative to controls” value is “reduction”, the “total ischemic damage relative to controls” value is recorded as “reduction” and the “edema relative to control animals” value is “significantly reduced”. In experiment [1] (IV, 0.6 mg/kg, at MCAO), the “reduction of infarct size” value stood at 81%. In experiment [1] (setting [4]), the “total infarct volume relative to control animals” value is “reduce total infarct size” and the “total infarct volume relative to controls” value is recorded as “reduce total infarct size; also recorded: reduction”. Further, in experiment [1] (setting [5]), the “total infarct volume relative to control animals” value was “significantly reduced; also recorded: reduce total infarct” and the “total infarct volume relative to controls” value is given as “reduce total infarct”. The “reduction of infarct volume” value in experiment [1] (10 mg/kg) turned out to be 70%. In experiment [1] (at the same concentration), the “reduction of tissue edema compared with alpha- or delta-tocopherol” value is reported as “more effective” and the “reduction of total infarct volume compared with alpha- or delta-tocopherol” value is “more effective”. The “mean reduction of infarct volumes” value in experiment [1] (intraperitoneal, 10-20 mg/kg, at MCAO or 3 hours post-reperfusion) was 20-57%. For the same compound, the “reduction of infarct size / infarct volume” value in experiment [1] (oral gavage 3 hours pre-MCAO, 4 mg/kg) was 53%. Further, the “reduction of infarct size” value in experiment [1] (setting [6]) is given as 77%.

In the case of `Cc1c(O)cc2c(c1C)OC(C)(CCC(=O)O)CC2` (stereo not shown) [gamma-CEHC, 6-hydroxy-2,7,8-trimethylchroman-2-propanoic acid], in experiment [1], the “total ischemic damage relative to control animals” value was “significantly reduced”, the “total infarct volume relative to control animals” value is “reduce total infarct size; also recorded: significantly reduced”, the “tissue edema relative to controls” value was “reduction” and the “total infarct volume relative to controls” value is “reduce total infarct size”. Moreover, in experiment [1], the “total ischemic damage relative to controls” value is “reduction” and the “edema relative to control animals” value is reported as “reduced tissue edema”. Besides, in experiment [1] (IV at MCAO, drug range 0.1-5 mg/kg), the “decrease of neuronal damage” value is 50-65%. In addition, in experiment [1] (setting [7]), the “total infarct volume relative to control animals” value is on record as “reduce total infarct” and the “total infarct volume relative to controls” value is reported as “reduction; also recorded: reduce total infarct”. Besides, the “reduction of infarct volume” value in experiment [1] (10 mg/kg) turned out to be 52%.

Take `Cc1c(C)c2c(c(C)c1O)CC[C@@](C)(CCC[C@H](C)CCC[C@H](C)CCCC(C)C)O2` (relative stereo) [alpha-tocopherol, [2R-2R*(4R*,8R*)]-3,4-dihydro-2,5,7,8-tetramethyl-2-(4,8,12-trimethyltridecyl)-2H-1-benzopyran-6-ol, reference compound]: the figures for the “reduction of infarct size” value in experiment [1] (6 mg/kg at MCAO (IV)) and in experiment [1] (setting [8]) were 42% and 43%, respectively.

As for `COc1ccc([C@@H]2CC(=O)c3c(O)cc(O)cc3O2)cc1O` [hesperetin, (S)-2,3-dihydro-5,7-dihydroxy-2-(3-hydroxy-4-methoxyphenyl)-4H-1benzopyran-4-one], the “synergy with gamma-tocopherol and delta-tocopherol” value in experiment [2] is given as “act synergistically”.

For `Cc1cc(O)c(C)c2c1OC(C)(CCCC(C)CCCC(C)CCCC(C)C)CC2` (stereo not drawn) [beta-tocopherol, 3,4-dihydro-2,5,8-trimethyl-2-(4,8,12-trimethyltridecyl)-2H-1-benzopyran-6-ol], in experiment [1] (gavage, three hours pre-MCAO), the total infarct size entry was “reduce total infarct size”. The “reduction of infarct size” value in experiment [1] (setting [6]) was determined as 76%.

As for `C[C@H](CS)C(=O)N1CCC[C@H]1C(=O)O` [captopril, 1-[(2S)-3-mercapto-2-methylpropionyl]-L-proline], in experiment [3], the heart weight result was “reduced heart weight” and the “left ventricular systolic pressure (LVSP)” value is recorded as “reduced LVSP”.

On to `Cc1cc(O)cc2c1O[C@](C)(CCC[C@H](C)CCC[C@H](C)CCCC(C)C)CC2` (relative stereo) [delta-tocopherol, [2R-[2R*(4R*,8R*)]]-3,4-dihydro-2,8-dimethyl-2-(4,8,12-trimethyltridecyl)-2H-1-benzo-pyran-6-ol], for which the “reduction of infarct size” value in experiment [1] (IV, 0.60 mg/kg) was determined as 52%; in experiment [1] (setting [8]), 48%. For the same compound, the “total infarct volume relative to control animals” value in experiment [1] was “reduce total infarct size”. For the same compound, the “reduction of total infarct volume compared with alpha-tocopherol” value in experiment [1] (rat, in vivo) is on record as “more effective”.

(Values after patent US20020132845A1, “Compositions and methods for the prevention and treatment of tissue ischemia” (priority 2000, published 2002).)
